Consider two compounds from patent US7449595B2, “Nitrosated and nitrosylated prostaglandins, compositions and methods of use” (NitroMed, Inc., priority 1999, dated 2008).

The test system of assay [1] is human corpus cavernosum tissue. Nature of the assay: Concentration response relaxation studies of human corpus cavernosum tissue strips contracted with phenylephrine. Particulars: compound alone, strips contracted with 0.5 μM phenylephrine, relaxation as % of 0.1 mM papaverine, n=5, read-out: EC50 (concentration required to obtain the half-maximum response) for relaxation. The assay is classed as cell-based. The protocol:
Human corpus cavernosum specimens were obtained from impotent men at the time of penile prosthesis insertion. Tissues were maintained at 4-6° C. in M-400 solution (composition per 100 ml: mannitol, 4.19 g; KH2PO4, 0.205 g; K2HPO4.3H2O, 0.97 g; KCl, 0.112 g; NaHCO3, 0.084 g) until used. Corpus cavernosum tissues were typically used between 2 and 16 hours from extraction.
Concentration response relaxation studies of human corpus cavernosum tissues were conducted as follows. Corpus cavernosal tissue strips (3×3×7 mm), obtained as described in Example 2, were immersed in a 8 ml organ chamber containing physiological salt solution, maintained at 37° C. and aerated with 5% CO2/95% air, pH 7.4. Each strip was incrementally stretched to optimal isometric tension, as determined by maximal contractile responses to 1 μM phenylephrine. Relaxant responses were evaluated by adding increasing cumulative concentrations of compounds to the strips contracted with 0.5 μM phenylephrine. Relaxation responses were expressed as a percentage of total relaxation induced by the addition of 0.1 mM papaverine hydrochloride (total loss of tone) at the end of the experiment. In FIGS. 2 and 3, the data are expressed as mean±standard error. Statistical analysis were conducted using a two-factor ANOVA statistical analysis using StatView software for Apple computers.
The tissues were prepared according to Example 4. […]

The test system of assay [2] is human corpus cavernosum tissue. The experiment in a line: Measurement of cGMP in human corpus cavernosum tissues (ELISA). Particulars: 5 min incubation after 30 μM Zaprinast and 100 μM IBMX, n=5. It counts as cell-based. Here is the method:
Human corpus cavernosum specimens were obtained from impotent men at the time of penile prosthesis insertion. Tissues were maintained at 4-6° C. in M-400 solution (composition per 100 ml: mannitol, 4.19 g; KH2PO4, 0.205 g; K2HPO4.3H2O, 0.97 g; KCl, 0.112 g; NaHCO3, 0.084 g) until used. Corpus cavernosum tissues were typically used between 2 and 16 hours from extraction. Measurement of cyclic GMP in corpus cavernosal tissues was carried out as follows. Corpus cavernosal tissue strips (3×3×7 mm) were immersed in a 8 ml organ chamber containing physiological salt solution, maintained at 37° C. and aerated with 5% CO2/95% air, pH 7.4. […] Tissues were incubated for another 5 minutes then immediately frozen in liquid nitrogen and stored at -80° C. until extraction for cyclic nucleotide assay. Tissues were extracted by homogenization in 6% trichloroacetic acid followed by ether (H2O-saturated) extraction and lyophilization. cGMP levels were determined by ELISA using a kit from Cayman Chemical (Ann Arbor, Mich.). Protein concentration in the corpus cavernosum tissue was determined using the Bio-Rad Protein Assay Kit microtiter plate assay procedure (Bio-Rad, Hercules, Calif.) with bovine serum albumin as the standard. The measured concentrations of cGMP in picomoles were normalized based on milligrams of protein to provide a valid comparison between each tissue sample. […]
A general note: ELISA stands for enzyme-linked immunosorbent assay.

As to `N[C@@H](CCC(=O)N[C@@H](CSN=O)C(=O)NCC(=O)O)C(=O)O` [GS-NO, N-(N-L-γ-glutamyl-S-Nitroso-L-cysteinyl)glycine], the EC50 in assay [1] came out at 2560 ± 1300 nM. The “cGMP production compared to control” value in assay [2] (100 μM GS-NO alone) was “increased amounts of cGMP”.

With `CCCCC[C@H](O)/C=C/[C@H]1[C@H](O)CC(=O)[C@@H]1CCCCCCC(=O)O` [PGE1, 7-(5-((1E)(3S)-3-hydroxyoct-1-enyl)(1R,4R,5R)-4-(hydroxy-2-oxocyclopentyl)heptanoic acid)], the EC50 in assay [1] turned out to be 83 ± 50 nM. In assay [2] (1 μM PGE1 alone), the “cGMP production compared to control” value is on record as “did not produce a significant amount of cGMP”.
